Experimental data from ChEMBL document CHEMBL1681667, “Structure-activity relationship studies of sphingosine-1-phosphate receptor agonists with N-cinnamyl-β-alanine moiety” (Bioorg Med Chem Lett, 2011).

Experiments:
[1] = target: Sphingosine 1-phosphate receptor 1 (Homo sapiens, UniProt P21453); assay: Agonist activity at human S1P1 receptor expressed in CHO cells assessed as intracellular calcium levels; type: functional, cell-based
[2] = target: Sphingosine 1-phosphate receptor 2 (Homo sapiens, UniProt O95136); assay: Agonist activity at human S1P2 receptor expressed in CHO cells assessed as intracellular calcium levels; type: functional, cell-based
[3] = target: Sphingosine 1-phosphate receptor 3 (Homo sapiens, UniProt Q99500); assay: Agonist activity at human S1P3 receptor expressed in CHO cells assessed as intracellular calcium levels; type: functional, cell-based
[4] = target: Sphingosine 1-phosphate receptor 5 (Homo sapiens, UniProt Q9H228); assay: Agonist activity at human S1P5 receptor expressed in CHO cells assessed as intracellular calcium levels; type: functional, cell-based
[5] = system: Mus musculus; assay: Immunomodulatory activity in po dosed mouse assessed as peripheral blood lymphocyte lowering activity after 4 hrs; type: functional
[6] = AUC (infinity) in rat at 30 mg/kg, po; type: ADME, organism-based; parameters: time infinity, dose 30 mg/kg, route oral; settings: plasma
[7] = Cmax in rat at 30 mg/kg, po; type: ADME, organism-based; parameters: dose 30 mg/kg, route oral; settings: in vivo
[8] = Half life in rat at 30 mg/kg, po; type: ADME, organism-based; parameters: dose 30 mg/kg, route oral; settings: in vivo

Chain of Sphingosine 1-phosphate receptor 3 (Q99500 whole entry): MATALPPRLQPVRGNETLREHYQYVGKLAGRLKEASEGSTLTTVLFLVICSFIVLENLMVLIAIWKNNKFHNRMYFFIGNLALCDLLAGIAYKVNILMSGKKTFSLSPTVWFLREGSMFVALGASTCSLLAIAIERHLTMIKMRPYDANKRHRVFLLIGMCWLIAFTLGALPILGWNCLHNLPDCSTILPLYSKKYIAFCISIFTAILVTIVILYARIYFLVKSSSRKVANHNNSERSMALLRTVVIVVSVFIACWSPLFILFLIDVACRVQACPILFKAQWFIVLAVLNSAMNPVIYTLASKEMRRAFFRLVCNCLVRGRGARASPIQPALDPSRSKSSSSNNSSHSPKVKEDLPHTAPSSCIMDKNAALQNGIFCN
Chain of Sphingosine 1-phosphate receptor 1 (P21453 whole entry): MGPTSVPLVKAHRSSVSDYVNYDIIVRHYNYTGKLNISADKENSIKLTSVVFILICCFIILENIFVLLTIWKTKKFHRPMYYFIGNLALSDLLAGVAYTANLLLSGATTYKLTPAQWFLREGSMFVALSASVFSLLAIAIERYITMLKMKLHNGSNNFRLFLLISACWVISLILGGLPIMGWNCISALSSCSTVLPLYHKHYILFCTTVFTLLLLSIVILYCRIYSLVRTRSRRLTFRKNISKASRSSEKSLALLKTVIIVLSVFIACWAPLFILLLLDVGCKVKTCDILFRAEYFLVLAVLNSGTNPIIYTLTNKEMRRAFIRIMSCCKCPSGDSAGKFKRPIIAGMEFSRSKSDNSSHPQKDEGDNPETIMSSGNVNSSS
Chain of Sphingosine 1-phosphate receptor 5 (Q9H228 whole entry): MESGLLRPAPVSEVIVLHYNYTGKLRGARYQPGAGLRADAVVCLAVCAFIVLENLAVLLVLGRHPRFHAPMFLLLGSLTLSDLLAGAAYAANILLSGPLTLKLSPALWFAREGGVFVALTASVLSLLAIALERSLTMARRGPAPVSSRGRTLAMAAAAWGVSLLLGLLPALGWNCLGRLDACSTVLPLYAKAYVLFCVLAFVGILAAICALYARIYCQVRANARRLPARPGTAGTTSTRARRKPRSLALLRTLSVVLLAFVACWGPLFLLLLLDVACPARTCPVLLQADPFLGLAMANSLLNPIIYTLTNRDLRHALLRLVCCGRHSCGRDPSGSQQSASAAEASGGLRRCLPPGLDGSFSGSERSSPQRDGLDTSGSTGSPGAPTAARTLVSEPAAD
Chain of Sphingosine 1-phosphate receptor 2 (O95136 whole entry): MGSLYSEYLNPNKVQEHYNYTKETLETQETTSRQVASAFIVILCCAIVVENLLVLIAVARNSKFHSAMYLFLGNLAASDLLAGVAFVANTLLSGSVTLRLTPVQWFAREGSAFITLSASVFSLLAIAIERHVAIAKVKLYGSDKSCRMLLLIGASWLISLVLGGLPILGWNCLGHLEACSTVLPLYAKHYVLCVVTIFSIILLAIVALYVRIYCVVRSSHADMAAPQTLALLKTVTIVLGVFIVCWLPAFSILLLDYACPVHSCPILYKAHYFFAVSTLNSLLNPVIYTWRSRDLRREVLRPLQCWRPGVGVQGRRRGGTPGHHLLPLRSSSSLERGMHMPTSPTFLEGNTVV

Structure (SMILES) | EC50 [1] [nM] | EC50 [2] [nM] | EC50 [3] [nM] | EC50 [4] [nM] | AUC(0-inf) [6] [µg·h/mL] | Cmax [7] [ng/mL] | half-life [8] [h] | ED50 [5] [mg/kg]
O=C(O)CCNCCCc1ccc(OCCCCCc2ccccc2)cc1 | 160 | > 10000 | 4200 | 170 | – | – | – | 26
O=C(O)CCNCCCc1ccc(OCCCc2ccccc2)cc1 | 2600 | – | 9000 | – | 174 | 28000 | 3.8 | –
O=C(O)CCNCCCc1ccc(OCCCCc2ccccc2)cc1 | 1500 | – | > 10000 | – | – | – | – | –
O=C(O)CCNCCCc1ccc(OCCCCCCc2ccccc2)cc1 | 2700 | – | > 10000 | – | – | – | – | –
C/C(=C\CNCCC(=O)O)c1ccc(OCCCc2ccccc2)cc1 | 21 | – | > 10000 | – | – | – | 7.4 | 0.69
O=C(O)CCN1CC=C(c2ccc(OCCCc3ccccc3)cc2)CC1 | 45 | – | 1200 | – | – | – | – | 1.4
O=C(O)CCN1CCC(c2ccc(OCCCc3ccccc3)cc2)CC1 | 1600 | – | > 10000 | – | – | – | – | –
O=C(O)CCN1CCC/C(=C\c2ccc(OCCCc3ccccc3)cc2)C1 | 1500 | – | > 10000 | – | – | – | – | –

More lines, main results first:

EC50 [1] [nM] | EC50 [2] [nM] | EC50 [3] [nM] | EC50 [4] [nM] | AUC(0-inf) [6] [µg·h/mL] | Cmax [7] [ng/mL] | half-life [8] [h] | Structure (SMILES) | ED50 [5] [mg/kg]
70 | – | 3300 | – | – | – | – | O=C(O)CCNC/C=C/c1ccc(OCCCc2ccccc2)cc1 | 4.6
33 | – | 1900 | – | – | – | – | C/C(=C\c1ccc(OCCCc2ccccc2)cc1)CNCCC(=O)O | –
930 | – | > 10000 | – | – | – | – | C/C(=C/CNCCC(=O)O)c1ccc(OCCCc2ccccc2)cc1 | –
